ChEMBL document CHEMBL5126592, “Design, synthesis and activity against drug-resistant bacteria evaluation of C-20, C-23 modified 5-O-mycaminosyltylonolide derivatives” (Eur J Med Chem, 2022)
Values after ≈ are worked out from the molar mass of the structure shown. Active and inactive are the calls of the source. No cut-off for these calls is given here.

Key:
Format in all cases: functional
Escherichia coli [1] = experiment: Induction of drug resistance in Escherichia coli ATCC 25922 assessed as increase in MIC measured after 30 passages by broth microdilution method
Klebsiella pneumoniae = experiment: Antibacterial activity against Klebsiella pneumoniae ATCC 13883 incubated for 16 to 20 hrs by broth microdilution method; details: time 16-20 hrs
Staphylococcus aureus [2] = experiment: Antibacterial activity against Staphylococcus aureus ATCC 25923 incubated for 16 to 20 hrs by broth microdilution method; details: time 16-20 hrs
[3] = system: Streptococcus dysgalactiae; experiment: Antibacterial activity against Streptococcus dysgalactiae incubated for 16 to 20 hrs by broth microdilution method; details: time 16-20 hrs
Cronobacter sakazakii = experiment: Antibacterial activity against Cronobacter sakazakii ATCC 29544 incubated for 16 to 20 hrs by broth microdilution method; details: time 16-20 hrs
Staphylococcus aureus [4] = experiment: Antibacterial activity against Staphylococcus aureus incubated for 16 to 20 hrs by broth microdilution method; details: time 16-20 hrs
Escherichia coli [5] = experiment: Antibacterial activity against Escherichia coli ATCC 25922 incubated for 16 to 20 hrs by broth microdilution method; details: time 16-20 hrs
Pseudomonas aeruginosa = experiment: Antibacterial activity against Pseudomonas aeruginosa LTP-3 incubated for 16 to 20 hrs by broth microdilution method; details: time 16-20 hrs
Enterococcus faecium = experiment: Antibacterial activity against Enterococcus faecium incubated for 16 to 20 hrs by broth microdilution method; details: time 16-20 hrs
Escherichia coli [6] = experiment: Antibacterial activity against Escherichia coli incubated for 16 to 20 hrs by broth microdilution method; details: time 16-20 hrs
[7] = system: Staphylococcus chromogenes; experiment: Antibacterial activity against Staphylococcus chromogenes incubated for 16 to 20 hrs by broth microdilution method; details: time 16-20 hrs

SMILES	Activity (Escherichia coli [1])	MIC (Klebsiella pneumoniae) [µg/mL]	MIC (Staphylococcus aureus [2]) [µg/mL]	MIC [3] [µg/mL]	MIC (Cronobacter sakazakii) [µg/mL]	MIC (Staphylococcus aureus [4]) [µg/mL]	MIC (Escherichia coli [5]) [µg/mL]	MIC (Pseudomonas aeruginosa) [µg/mL]	MIC (Enterococcus faecium) [µg/mL]	MIC (Escherichia coli [6]) [µg/mL]	MIC [7] [µg/mL]
CS(=O)(=O)c1ccc([C@@H](O)[C@@H](CF)NC(=O)C(Cl)Cl)cc1	Active										
CC[C@H]1OC(=O)C[C@@H](O)[C@H](C)[C@@H](O[C@@H]2O[C@H](C)[C@@H](O)[C@H](N(C)C)[C@H]2O)[C@@H](CCN(C)Cc2cn(-c3cnc4ccccc4c3)nn2)C[C@@H](C)C(=O)/C=C/C(C)=C/[C@@H]1CO		2 (≈ 2.44 µM)	1 (≈ 1.22 µM)	0.5 (≈ 0.609 µM)	8 (≈ 9.74 µM)	0.25 (≈ 0.304 µM)	4 (≈ 4.87 µM)	4 (≈ 4.87 µM)	2 (≈ 2.44 µM)	4 (≈ 4.87 µM)	0.125 (≈ 0.152 µM)
CC[C@H]1OC(=O)C[C@@H](O)[C@H](C)[C@@H](O[C@@H]2O[C@H](C)[C@@H](O)[C@H](N(C)C)[C@H]2O)[C@@H](CCN(Cc2ccccc2)Cc2cn(-c3cnc4ccccc4c3)nn2)C[C@@H](C)C(=O)/C=C/C(C)=C/[C@@H]1CO		8 (≈ 8.92 µM)	0.25 (≈ 0.279 µM)	0.5 (≈ 0.557 µM)	32 (≈ 35.7 µM)	0.5 (≈ 0.557 µM)	8 (≈ 8.92 µM)	4 (≈ 4.46 µM)	4 (≈ 4.46 µM)	8 (≈ 8.92 µM)	4 (≈ 4.46 µM)
CC[C@H]1OC(=O)C[C@@H](O)[C@H](C)[C@@H](O[C@@H]2O[C@H](C)[C@@H](O)[C@H](N(C)C)[C@H]2O)[C@@H](CCN(C)Cc2cn(-c3cnc4ccccc4c3)nn2)C[C@@H](C)C(=O)/C=C/C(C)=C/[C@@H]1CN(C)C		2 (≈ 2.36 µM)	0.25 (≈ 0.295 µM)	2 (≈ 2.36 µM)	4 (≈ 4.72 µM)	0.25 (≈ 0.295 µM)	2 (≈ 2.36 µM)	2 (≈ 2.36 µM)	1 (≈ 1.18 µM)	2 (≈ 2.36 µM)	0.5 (≈ 0.59 µM)
CC[C@H]1OC(=O)C[C@@H](O)[C@H](C)[C@@H](O[C@@H]2O[C@H](C)[C@@H](O)[C@H](N(C)C)[C@H]2O)[C@@H](CCN(C)Cc2cn(-c3cnc4ccccc4c3)nn2)C[C@@H](C)C(=O)/C=C/C(C)=C/[C@@H]1CN(CC)CC		1 (≈ 1.14 µM)	0.125 (≈ 0.143 µM)	0.5 (≈ 0.571 µM)	4 (≈ 4.57 µM)	0.5 (≈ 0.571 µM)	2 (≈ 2.28 µM)	2 (≈ 2.28 µM)	2 (≈ 2.28 µM)	4 (≈ 4.57 µM)	1 (≈ 1.14 µM)
CC[C@H]1OC(=O)C[C@@H](O)[C@H](C)[C@@H](O[C@@H]2O[C@H](C)[C@@H](O)[C@H](N(C)C)[C@H]2O)[C@@H](CCN(C)Cc2cn(-c3cnc4ccccc4c3)nn2)C[C@@H](C)C(=O)/C=C/C(C)=C/[C@@H]1CN1CCCCC1		2 (≈ 2.25 µM)	0.5 (≈ 0.563 µM)	0.5 (≈ 0.563 µM)	8 (≈ 9.01 µM)	0.25 (≈ 0.281 µM)	2 (≈ 2.25 µM)	1 (≈ 1.13 µM)	1 (≈ 1.13 µM)	2 (≈ 2.25 µM)	0.5 (≈ 0.563 µM)
